US20080318945A1, “Novel Compounds” (priority 2005, published 2008)

Tests used:
TRPV4 channel receptor = biological target: T1, TRPV4 channel receptor (Homo sapiens, UniProt Q9HBA0); experiment: FLIPR assay using TRPV4 expressing HEK cells; format: cell-based; conditions: FLIPR method; read-out: pEC50 values (converted)
T1 construct: expressed in transfected cells; host or cells: HEK cells
Text: Other techniques used to measure TRPV4 channel receptor activation in chondrocytes include, but are not limited to: FLIPR assay, measuring a compound's capability to reduce the amount of ADAMTSs produced and/or released in response to a catabolic stimulus by a cell comprising a TRPV4 channel receptor; measuring a compound's capability to reduce the amount of MMPs produced and/or released in response to a catabolic stimulus by a cell comprising a TRPV4 channel receptor; measuring a compound's capability to effect the amount of nitric oxide (NO) produced in response to a catabolic stimulus by a cell comprising a TRPV4 channel receptor; and measuring a compound's capability to attenuate the inhibition of matrix synthesis in response to a catabolic stimulus by a cell comprising a TRPV4 channel receptor.
(§1) All exemplary compounds of the present invention were assessed using at least one of the biological assays presented above. Compounds presented in the Examples had EC50 values of about 0.0001 μM to 1 μM as measured by Flex Station using bovine articular chondrocytes and pEC50 values between about 6.0 to 9.1 as measured by FLIPR assay using TRPV4 expressing HEK cells.

TRPV4 channel receptors = biological target: T2, TRPV4 channel receptors (Bos taurus, UniProt A0A8F4X677); experiment: Ca2+ influx by Fura-2 fluorescence on FlexStation in bovine articular chondrocytes; format: cell-based
T2 construct: obtained using this method in bovine articular chondrocytes; endogenous in cells; host or cells: bovine articular chondrocytes
Text: Ca^2+ influx mediated through TRPV4 channel receptors can be measured using articular chondrocytes from such species as, but not limited to, human, rat, canine, rabbit, monkey, and bovine, using standard techniques in the art such as, but not limited to, Fura-2 (Invitrogen/Molecular Probes, Eugene, Oreg.) fluorescence using a FlexStation (manufactured by Molecular Devices, Sunnyvale, Calif.). Table 1 lists biological data for several representative compounds obtained using this method in bovine articular chondrocytes.
as §1

T2 sequence (A0A8F4X677 1-871): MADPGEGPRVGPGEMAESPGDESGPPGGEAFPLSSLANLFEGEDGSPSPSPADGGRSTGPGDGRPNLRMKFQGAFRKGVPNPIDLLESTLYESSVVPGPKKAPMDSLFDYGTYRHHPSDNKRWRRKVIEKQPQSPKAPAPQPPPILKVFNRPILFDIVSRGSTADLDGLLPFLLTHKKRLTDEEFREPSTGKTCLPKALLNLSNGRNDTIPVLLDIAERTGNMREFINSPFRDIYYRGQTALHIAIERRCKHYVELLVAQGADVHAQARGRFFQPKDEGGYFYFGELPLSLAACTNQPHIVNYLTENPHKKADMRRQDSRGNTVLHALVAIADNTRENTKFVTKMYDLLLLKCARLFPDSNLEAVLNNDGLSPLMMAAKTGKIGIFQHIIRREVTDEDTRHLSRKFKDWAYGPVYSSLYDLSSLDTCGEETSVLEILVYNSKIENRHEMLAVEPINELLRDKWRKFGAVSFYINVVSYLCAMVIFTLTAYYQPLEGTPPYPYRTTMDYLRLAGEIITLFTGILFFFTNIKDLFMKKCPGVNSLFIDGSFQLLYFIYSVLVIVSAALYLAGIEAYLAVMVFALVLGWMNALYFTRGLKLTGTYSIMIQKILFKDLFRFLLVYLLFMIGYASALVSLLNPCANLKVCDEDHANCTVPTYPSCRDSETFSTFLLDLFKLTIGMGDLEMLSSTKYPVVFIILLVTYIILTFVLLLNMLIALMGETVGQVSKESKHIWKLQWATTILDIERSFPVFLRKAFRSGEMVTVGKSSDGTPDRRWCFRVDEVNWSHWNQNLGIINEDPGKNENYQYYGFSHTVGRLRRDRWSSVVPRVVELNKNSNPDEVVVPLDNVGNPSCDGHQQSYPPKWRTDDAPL
T1 sequence (Q9HBA0 whole entry): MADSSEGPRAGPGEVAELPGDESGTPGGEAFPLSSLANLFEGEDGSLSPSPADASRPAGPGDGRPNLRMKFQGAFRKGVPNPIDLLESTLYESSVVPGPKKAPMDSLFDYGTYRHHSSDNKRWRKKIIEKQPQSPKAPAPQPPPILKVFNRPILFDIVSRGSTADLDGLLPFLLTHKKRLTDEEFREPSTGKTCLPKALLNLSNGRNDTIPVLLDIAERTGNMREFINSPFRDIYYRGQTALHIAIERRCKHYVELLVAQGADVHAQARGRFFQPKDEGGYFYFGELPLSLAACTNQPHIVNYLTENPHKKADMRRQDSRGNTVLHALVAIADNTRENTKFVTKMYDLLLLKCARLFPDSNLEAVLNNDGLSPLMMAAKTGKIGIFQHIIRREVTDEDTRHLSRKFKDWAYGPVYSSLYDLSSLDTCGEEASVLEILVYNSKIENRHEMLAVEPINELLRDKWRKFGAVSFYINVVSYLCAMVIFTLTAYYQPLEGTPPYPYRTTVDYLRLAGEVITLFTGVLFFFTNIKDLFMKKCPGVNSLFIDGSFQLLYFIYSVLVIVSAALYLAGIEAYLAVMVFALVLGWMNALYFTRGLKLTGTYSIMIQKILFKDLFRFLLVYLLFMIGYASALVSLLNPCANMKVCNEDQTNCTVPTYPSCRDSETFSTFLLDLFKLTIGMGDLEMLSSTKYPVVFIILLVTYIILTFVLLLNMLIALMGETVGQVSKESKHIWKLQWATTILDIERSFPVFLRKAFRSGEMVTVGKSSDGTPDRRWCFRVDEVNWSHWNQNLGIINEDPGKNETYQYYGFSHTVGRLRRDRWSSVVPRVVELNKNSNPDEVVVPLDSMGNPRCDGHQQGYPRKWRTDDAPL

Row | EC50 (TRPV4 channel receptor) | EC50 (TRPV4 channel receptors) | SMILES
1 | 100 to 794 nM | 90 to 5010 nM | CC(C)C[C@H](NC(=O)c1cc2ccccc2s1)C(=O)N1CCN(CCNS(=O)(=O)c2ccc(Cl)cc2Cl)CC1 [Example 1, N-((1S)-1-{[4-(2-{[(2,4-Dichlorophenyl)sulfonyl]amino}ethyl)-1-piperazinyl]carbonyl}-3-methylbutyl)-1-benzothiophene-2-carboxamide]
2 | 10 to 79.4 nM | 20 to 89 nM | CC(C)C[C@H](NC(=O)c1cc2ccccc2s1)C(=O)N1CCN(C(=O)CNS(=O)(=O)c2ccc(Cl)cc2Cl)CC1 [Example 3, N-((1S)-1-{[4-({[(2,4-Dichlorophenyl)sulfonyl]amino}acetyl)-1-piperazinyl]carbonyl}-3-methylbutyl)-1-benzothiophene-2-carboxamide]
3 | < 7.94 nM | 0.1 to 19 nM | CC(C)C[C@H](NC(=O)c1cc2ccccc2s1)C(=O)N1CCN(C(=O)[C@H](C)NS(=O)(=O)c2ccc(Cl)cc2Cl)CC1 [Example 9, N-((1S)-1-{[4-((2S)-2-{[(2,4-dichlorophenyl)sulfonyl]amino}propanoyl)-1-piperazinyl]carbonyl}-3-methylbutyl)-1-benzothiophene-2-carboxamide]
